Measured values: US20100172944A1, “COMBINATION OF MONOSACCHARIDES WITH SUNSCREENS AND USE THEREOF” (L'OREAL, priority 2008, published 2010)

Experiments:
[1] = test system: keratinocytes (HaCat line); test: Proliferation of keratinocytes in culture medium deficient in growth factors (Cyquant, Nile red, XTT markers); format: cell-based; details: medium depleted in growth factors; compared with untreated control
Experimental: The keratinocytes (HaCat line) are cultured under two conditions: whole defined culture medium (standard condition) and culture medium deficient in growth factors. This deficient medium gives rise to a controlled delay in cell proliferation. Under these conditions, it is then possible to measure the effects of compounds capable of compensating for the deficiency in growth factors of the culture medium and thus of relaunching the cell multiplication and/or of stimulating cell metabolism.
The keratinocyte proliferation is measured by means of three markers on the same cell population: the level of DNA, which is proportional to the number of cells (Cyquant probe), the level of constituent polar lipids of cell membranes (Nile red probe) and the mitochondrial respiration, which reflects the general cell metabolism (XTT probe).

[2] = test system: dermal fibroblasts of the reconstructed skin; test: Proliferation of fibroblasts in whole reconstructed skin (propidium iodide nuclei count on frozen sections); format: cell-based, human; details: 5 mM; within 48 hours of treatment; vs control skin
Text: Rhamnose was studied on a model of whole reconstructed skin in order to measure its anti-ageing efficacy on the dermal compartment.
Briefly, the model of reconstructed skin used is that described by Bell et al. (Bell E. et al., The reconstitution of living skin, J. Invest. Dermatol., 1983, July; 81): it includes a dermal equivalent on which is reconstructed a multistratified epidermis; the dermal equivalent is manufactured from acid-soluble collagen, culture medium containing serum and normal adult human fibroblasts. After 5 days of shrinkage, this equivalent is inoculated with keratinocytes and then cultured for 6 days in immersion and for 7 days in emersion in order to obtain a multistratified and differentiated epidermis having a horny layer.
The reconstructed skin is treated with 5 mM rhamnose for 2 days and 5 days in the culture medium; after the treatment, the reconstructed skins are included in Tissue Tek in order to produce frozen sections 7 μm thick with a cryostat. […] Three frozen sections are prepared at random on each reconstructed skin; on each section, two microscopic fields (25× objective lens) are analysed by fluorescence microscopy and photographed. The dermal fibroblasts are thus counted for each reconstructed skin on six images in total representing the six microscopic fields considered. […]

type I procollagen = test: Synthesis of procollagen 1 in reconstructed skin (indirect immunofluorescence); format: cell-based, human; details: for procollagen 1 synthesis: reconstructed skin
Experimental: Conventional detection via indirect immunofluorescence of type I procollagen in the dermis of the reconstructed skin was also performed on other series of frozen sections (anti-procoll 1 antibody (MAB 1912 Millipore)+FTIC-coupled conjugate (112-095-068 Jackson Immunoresearch)). In order to obtain bearings within the cutaneous architecture during the microscopic examination of the sections, the cell nuclei of the keratinocytes and fibroblasts are localized by staining them with propidium iodide, as described above. Three frozen sections are prepared at random on each reconstructed skin and on each section, and two microscopic fields (25× objective lens) are analysed by fluorescence microscopy and photographed. The levels of fluorescence proportional to the amount of type I procollagen are compared between the control skin and the skin treated with rhamnose.

For `C[C@H](O)[C@H](O)[C@@H](O)[C@@H](O)C=O` [rhamnose, Rhamnose], the keratinocyte proliferation [1] was “activate keratinocyte proliferation”, the “growth of the dermal fibroblasts of the reconstructed skin” value [2] was “induces stimulation of growth” and the “green fluorescence proportional to the amount of type I procollagen” value (type I procollagen; 1 mM for 120 hours, compared with control skin (FIG. 4)) was “marked increase in green fluorescence”. For the same molecule, the “procollagen 1 synthesis” value (type I procollagen; 1 mM) was “stimulation of procollagen 1 synthesis” and the “procollagen 1 synthesis” value (type I procollagen; 5 mM) was “stimulation of procollagen 1 synthesis”.
